These are literature values, as cited in US20080221211A1, “METHOD OF TREATMENT OF NEUROLOGICAL INJURY OR CANCER BY ADMINISTRATION OF DICHLOROACETATE” (priority 2007, published 2008).

One data set concerns cancer cell lines. Conditions: restored mitochondrial function and apoptosis.
For a further data set, the system named is tumors. Conditions: rat model.
The conditions of data set [1]: in vivo.
For data set [2], the system named is infarct size after stroke. Conditions: rat; given within 2.25 hours of a stroke.
Data set [3] relates to cytochome oxidase activity in primary neurons.
The subject of the next data set is infarct size. Conditions: rat pMCAo model; infusion.

`O=C(O)C(Cl)Cl` [DCA, dichloroacetic acid]: the “effect on cancer cells in vitro” value with cancer cell lines was “killing cancer cells in vitro”. Further, the “effect on tumors in rats” value in the data set with tumors was “shrinking the tumors in rats”. Further, in data set [1], the reported adverse effect entry is “neuropathy”. In the case of `CC(C)(C)[N+]([O-])=Cc1ccc(S(=O)(=O)[O-])cc1S(=O)(=O)[O-].[Na+].[Na+]` [NXY-059], in data set [2], the “effect on infarct size” value is given as “reduces infarct size”. For `NC1=N[C@H](O)[C@H]2[C@H]3O[C@]4(O)O[C@@H]([C@@H](O)[C@@]2(N1)[C@@H]4O)[C@]3(O)CO` [TTX, tetrodotoxin], the “effect on cytochrome oxidase activity” value in data set [3] is “reduces cytochome oxidase activity”. Regarding VEGF, the “effect on infarct size” value in the data set with infarct size is “reduction of infarct size”.
